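How tested: cells in 96-well plates exposed to compound for 48 hours at five concentrations. TGI is the concentration that stops growth completely.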
Assays:
Assay in all cases: growth of human tumour cells (NCI), 48 h
HCT-15 colon = tested on: HCT-15 colon
IGROV1 ovarian = tested on: IGROV1 ovarian
MDA-MB-231 breast = tested on: MDA-MB-231 breast
KM12 colon = tested on: KM12 colon
RXF 393 renal = tested on: RXF 393 renal
U251 CNS = tested on: U251 CNS
K-562 leukemia = tested on: K-562 leukemia
SK-MEL-28 melanoma = tested on: SK-MEL-28 melanoma
HOP-92 NSCLC = tested on: HOP-92 NSCLC
NCI/ADR-RES ovarian = tested on: NCI/ADR-RES ovarian
SF-268 CNS = tested on: SF-268 CNS
SK-OV-3 ovarian = tested on: SK-OV-3 ovarian
LOX IMVI melanoma = tested on: LOX IMVI melanoma
SK-MEL-5 melanoma = tested on: SK-MEL-5 melanoma
CAKI-1 renal = tested on: CAKI-1 renal
HCT-116 colon = tested on: HCT-116 colon
SK-MEL-2 melanoma = tested on: SK-MEL-2 melanoma
SW-620 colon = tested on: SW-620 colon
BT-549 breast = tested on: BT-549 breast
SNB-75 CNS = tested on: SNB-75 CNS
A549 NSCLC = tested on: A549 NSCLC
COLO 205 colon = tested on: COLO 205 colon
SN12C renal = tested on: SN12C renal
TK-10 renal = tested on: TK-10 renal
EKVX NSCLC = tested on: EKVX NSCLC
SF-539 CNS = tested on: SF-539 CNS
OVCAR-4 ovarian = tested on: OVCAR-4 ovarian
SNB-19 CNS = tested on: SNB-19 CNS
NCI-H226 lung = tested on: NCI-H226 lung
NCI-H23 lung = tested on: NCI-H23 lung
SR leukemia = tested on: SR leukemia
786-0 renal = tested on: 786-0 renal
M14 melanoma = tested on: M14 melanoma
CCRF-CEM leukemia = tested on: CCRF-CEM leukemia
SF-295 CNS = tested on: SF-295 CNS
UO-31 renal = tested on: UO-31 renal
OVCAR-8 ovarian = tested on: OVCAR-8 ovarian
NCI-H460 lung = tested on: NCI-H460 lung
OVCAR-3 ovarian = tested on: OVCAR-3 ovarian
A498 renal = tested on: A498 renal
MALME-3M melanoma = tested on: MALME-3M melanoma
HOP-62 NSCLC = tested on: HOP-62 NSCLC
MDA-MB-435 = tested on: MDA-MB-435
ACHN renal = tested on: ACHN renal
MCF7 breast = tested on: MCF7 breast
DU-145 prostate = tested on: DU-145 prostate
HCC-2998 colon = tested on: HCC-2998 colon
MDA-N = tested on: MDA-N
UACC-62 melanoma = tested on: UACC-62 melanoma
MOLT-4 leukemia = tested on: MOLT-4 leukemia
NCI-H522 lung = tested on: NCI-H522 lung
PC-3 prostate = tested on: PC-3 prostate
RPMI-8226 leukemia = tested on: RPMI-8226 leukemia
T-47D breast = tested on: T-47D breast
OVCAR-5 ovarian = tested on: OVCAR-5 ovarian
UACC-257 melanoma = tested on: UACC-257 melanoma
HS 578T breast = tested on: HS 578T breast
HT29 colon = tested on: HT29 colon

## O=c1[nH]c(=O)n(C2CC(O)C(CO)O2)c2nc3ccc4ccccc4c3nc12 (stereo unspecified)
HCT-15 colon
  TGI: > 100 µM
IGROV1 ovarian
  TGI: > 100 µM
MDA-MB-231 breast
  TGI: > 100 µM
KM12 colon
  TGI: > 100 µM
RXF 393 renal
  TGI: > 100 µM
U251 CNS
  TGI: > 100 µM
K-562 leukemia
  TGI: > 100 µM
SK-MEL-28 melanoma
  TGI: > 100 µM
HOP-92 NSCLC
  TGI: > 100 µM
NCI/ADR-RES ovarian
  TGI: > 100 µM
SF-268 CNS
  TGI: > 100 µM
SK-OV-3 ovarian
  TGI: > 100 µM
LOX IMVI melanoma
  TGI: > 100 µM
SK-MEL-5 melanoma
  TGI: > 100 µM
CAKI-1 renal
  TGI: > 100 µM
HCT-116 colon
  TGI: > 100 µM
SK-MEL-2 melanoma
  TGI: > 100 µM
SW-620 colon
  TGI: > 100 µM
BT-549 breast
  TGI: > 100 µM
SNB-75 CNS
  TGI: > 100 µM
A549 NSCLC
  TGI: > 100 µM
COLO 205 colon
  TGI: > 100 µM
SN12C renal
  TGI: > 100 µM
TK-10 renal
  TGI: > 100 µM
EKVX NSCLC
  TGI: > 100 µM
SF-539 CNS
  TGI: > 100 µM
OVCAR-4 ovarian
  TGI: > 100 µM
SNB-19 CNS
  TGI: > 100 µM
NCI-H226 lung
  TGI: > 100 µM
NCI-H23 lung
  TGI: > 100 µM
SR leukemia
  TGI: > 100 µM
786-0 renal
  TGI: > 100 µM
M14 melanoma
  TGI: > 100 µM
CCRF-CEM leukemia
  TGI: > 100 µM
SF-295 CNS
  TGI: > 100 µM
UO-31 renal
  TGI: > 100 µM
OVCAR-8 ovarian
  TGI: > 100 µM
NCI-H460 lung
  TGI: > 100 µM
OVCAR-3 ovarian
  TGI: > 100 µM
A498 renal
  TGI: > 100 µM
MALME-3M melanoma
  TGI: > 100 µM
HOP-62 NSCLC
  TGI: 98.3 µM
MDA-MB-435
  TGI: > 100 µM
ACHN renal
  TGI: > 100 µM
MCF7 breast
  TGI: > 100 µM
DU-145 prostate
  TGI: > 100 µM
HCC-2998 colon
  TGI: > 100 µM
MDA-N
  TGI: > 100 µM
UACC-62 melanoma
  TGI: > 100 µM
MOLT-4 leukemia
  TGI: 54.3 µM
NCI-H522 lung
  TGI: > 100 µM
PC-3 prostate
  TGI: > 100 µM
RPMI-8226 leukemia
  TGI: 76 µM
T-47D breast
  TGI: > 100 µM
OVCAR-5 ovarian
  TGI: > 100 µM
UACC-257 melanoma
  TGI: > 100 µM
HS 578T breast
  TGI: > 100 µM

## CCn1c(=O)c2c3ccc(O)cc3oc2c2ccc(O)cc21
HCT-15 colon
  TGI: > 100 µM
IGROV1 ovarian
  TGI: > 100 µM
MDA-MB-231 breast
  TGI: > 100 µM
KM12 colon
  TGI: > 100 µM
RXF 393 renal
  TGI: > 100 µM
U251 CNS
  TGI: > 100 µM
K-562 leukemia
  TGI: > 100 µM
SK-MEL-28 melanoma
  TGI: > 100 µM
HOP-92 NSCLC
  TGI: > 100 µM
NCI/ADR-RES ovarian
  TGI: > 100 µM
SF-268 CNS
  TGI: > 100 µM
SK-OV-3 ovarian
  TGI: > 100 µM
SK-MEL-5 melanoma
  TGI: > 100 µM
CAKI-1 renal
  TGI: > 100 µM
HCT-116 colon
  TGI: 74 µM
SW-620 colon
  TGI: > 100 µM
BT-549 breast
  TGI: > 100 µM
SNB-75 CNS
  TGI: > 100 µM
A549 NSCLC
  TGI: > 100 µM
COLO 205 colon
  TGI: > 100 µM
SN12C renal
  TGI: > 100 µM
TK-10 renal
  TGI: > 100 µM
EKVX NSCLC
  TGI: 7.39 µM
SF-539 CNS
  TGI: > 100 µM
OVCAR-4 ovarian
  TGI: > 100 µM
SNB-19 CNS
  TGI: > 100 µM
NCI-H226 lung
  TGI: > 100 µM
NCI-H23 lung
  TGI: > 100 µM
SR leukemia
  TGI: > 100 µM
786-0 renal
  TGI: > 100 µM
HT29 colon
  TGI: > 100 µM
M14 melanoma
  TGI: > 100 µM
CCRF-CEM leukemia
  TGI: > 100 µM
SF-295 CNS
  TGI: > 100 µM
UO-31 renal
  TGI: 78.3 µM
OVCAR-8 ovarian
  TGI: > 100 µM
NCI-H460 lung
  TGI: > 100 µM
OVCAR-3 ovarian
  TGI: > 100 µM
A498 renal
  TGI: 84.5 µM
MALME-3M melanoma
  TGI: > 100 µM
HOP-62 NSCLC
  TGI: > 100 µM
MDA-MB-435
  TGI: > 100 µM
ACHN renal
  TGI: 88 µM
MCF7 breast
  TGI: > 100 µM
DU-145 prostate
  TGI: > 100 µM
HCC-2998 colon
  TGI: > 100 µM
MDA-N
  TGI: > 100 µM
UACC-62 melanoma
  TGI: > 100 µM
MOLT-4 leukemia
  TGI: > 100 µM
NCI-H522 lung
  TGI: > 100 µM
PC-3 prostate
  TGI: > 100 µM
T-47D breast
  TGI: 69.1 µM
UACC-257 melanoma
  TGI: > 100 µM
HS 578T breast
  TGI: 70.4 µM

From PubChem BioAssay (NCI)
